Assay results published in article PMC6221475 (Bioorganic & medicinal chemistry letters, 2018).

How the values were obtained:
[1] = target: σ2 receptors; experiment: σ2 receptor in vitro binding assay with [3H]DTG
[2] = target: T1, VAChT (Homo sapiens, UniProt Q16572); experiment: VAChT competitive binding assay with tritiated vesamicol; details: read-out: Ki-VAChT; tritiated vesamicol as competitive radioligand
T1 sequence (Q16572 1-532): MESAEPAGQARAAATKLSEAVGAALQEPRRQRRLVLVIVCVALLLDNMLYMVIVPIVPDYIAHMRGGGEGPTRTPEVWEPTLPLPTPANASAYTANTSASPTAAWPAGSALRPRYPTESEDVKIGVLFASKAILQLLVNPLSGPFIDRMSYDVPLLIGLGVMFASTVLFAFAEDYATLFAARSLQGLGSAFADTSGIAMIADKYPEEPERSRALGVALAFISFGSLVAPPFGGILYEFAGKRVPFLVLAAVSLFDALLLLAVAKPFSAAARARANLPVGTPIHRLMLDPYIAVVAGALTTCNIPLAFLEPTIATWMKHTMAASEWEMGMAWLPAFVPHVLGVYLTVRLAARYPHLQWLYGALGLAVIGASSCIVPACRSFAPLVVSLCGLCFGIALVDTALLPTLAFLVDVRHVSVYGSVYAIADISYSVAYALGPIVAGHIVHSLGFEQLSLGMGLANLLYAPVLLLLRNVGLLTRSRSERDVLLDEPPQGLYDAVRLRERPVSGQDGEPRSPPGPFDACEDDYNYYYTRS

[3] = target: σ1 receptors; experiment: σ1 receptor in vitro binding assay with [3H]pentazocine
[4] = system: VAChT; details: cited from earlier work
[5] = system: VAChT; details: cited from earlier work; remark: listed apart in the source

O=C(c1ccc(F)cc1)C1CCN(C2Cc3c(O)cccc3CC2O)CC1 (single isomer, unassigned; (-)) [(−)-1, (−)-(1-(3,8-Dihydroxy-1,2,3,4-tetrahydronaphthalen-2-yl)piperidin-4-yl)(4-fluorophenyl)methanone]
Ki ([1]; read-out: Ki-σ2, [3H]DTG as radioligand): > 10000 nM | VAChT/σ2 ([1]; selectivity ratio for VAChT over σ2): 2165 | Ki [2]: 4.62 ± 0.22 nM | Ki ([3]; read-out: Ki-σ1, [3H]pentazocine as radioligand): 2010 ± 450 nM | VAChT/σ1 ([3]; selectivity ratio for VAChT over σ1): 435

OC1Cc2cccc(OCC[18F])c2CC1N1CCC(c2ccccc2)CC1 (single isomer, unassigned; (-)) [[^18F]FEOBV, (−)-5-[^18F]fluoroethoxybenzovesamicol]
time required to equilibrate in the striatum ([4]; human, PET, ref [11], [16], [17]): over 6 h

O=C(c1ccc(F)cc1)C1CCN(C2Cc3c(cccc3OCC[18F])CC2O)CC1 (single isomer, unassigned; (-)) [[^18F]VAT, (−)-(1-(8-(2-[^18F]fluoroethoxy)-3-hydroxy-1,2,3,4tetrahydro-naphthalen-2-yl)-piperidin-4-yl)(4-fluorophenyl)-methanone]
standardized uptake value (SUV) at peak uptake ([5]; NHP brain, at 15 min, ref [23]): 5.1 | uptake ratio of target (striatum) to non-target (cerebellum) ([5]; NHP brain, ref [23]): 3.0 | time of peak uptake in the brain ([5]; in vivo): 15 min

OC1Cc2cccc([123I])c2CC1N1CCC(c2ccccc2)CC1 (single isomer, unassigned; (-)) [[^123I]IBVM, (−)-5-[^123I]iodo-benzovesamicol]
time of peak uptake in the target regions post-injection ([4]; human subjects, SPECT, ref [10], [13]–[15]): at least 6 h
